Earlier results as cited in patent US7771758B2, “Extract of mad-dog skullcap” (Tom's of Maine, priority 2002, dated 2010).

Experiments:
[1] = tested on: benzodiazepine site of the GABAA receptor; conditions: in vitro; flavones isolated from Scutellaria baicalensis

intestinal absorption (in vivo)	conjugation in the plasma (plasma)	Compound	ability to bind to the benzodiazepine site of the GABAA receptor [1]	transformation by intestinal bacteria (intestinal bacteria)
readily absorbed intestinally	efficiently conjugated back to baicalin	O=c1cc(-c2ccccc2)oc2cc(O)c(O)c(O)c12 [Baicalein, baicalein]	weak ligands	
		COc1c(O)cc2oc(-c3ccccc3)cc(=O)c2c1O [oroxylin A]	strong affinity	
		COc1c(O)cc(O)c2c(=O)cc(-c3ccccc3)oc12 [wogonin]	strong affinity	
		O=C(O)[C@H]1O[C@@H](Oc2cc3oc(-c4ccccc4)cc(=O)c3c(O)c2O)[C@H](O)[C@@H](O)[C@@H]1O [baicalin]	weak ligands	transformed to its aglycon baicalein
